US12668586B2, “AhR inhibitor, use thereof, and preparation method therefor” (CHONGQING PHARSCIN INNOBIO CO., LTD., priority 2021, dated 2026)
pIC50: −log10 of the molar value.

Target: T1, AhR (Homo sapiens, UniProt P35869)
T1 sequence (P35869 11-848): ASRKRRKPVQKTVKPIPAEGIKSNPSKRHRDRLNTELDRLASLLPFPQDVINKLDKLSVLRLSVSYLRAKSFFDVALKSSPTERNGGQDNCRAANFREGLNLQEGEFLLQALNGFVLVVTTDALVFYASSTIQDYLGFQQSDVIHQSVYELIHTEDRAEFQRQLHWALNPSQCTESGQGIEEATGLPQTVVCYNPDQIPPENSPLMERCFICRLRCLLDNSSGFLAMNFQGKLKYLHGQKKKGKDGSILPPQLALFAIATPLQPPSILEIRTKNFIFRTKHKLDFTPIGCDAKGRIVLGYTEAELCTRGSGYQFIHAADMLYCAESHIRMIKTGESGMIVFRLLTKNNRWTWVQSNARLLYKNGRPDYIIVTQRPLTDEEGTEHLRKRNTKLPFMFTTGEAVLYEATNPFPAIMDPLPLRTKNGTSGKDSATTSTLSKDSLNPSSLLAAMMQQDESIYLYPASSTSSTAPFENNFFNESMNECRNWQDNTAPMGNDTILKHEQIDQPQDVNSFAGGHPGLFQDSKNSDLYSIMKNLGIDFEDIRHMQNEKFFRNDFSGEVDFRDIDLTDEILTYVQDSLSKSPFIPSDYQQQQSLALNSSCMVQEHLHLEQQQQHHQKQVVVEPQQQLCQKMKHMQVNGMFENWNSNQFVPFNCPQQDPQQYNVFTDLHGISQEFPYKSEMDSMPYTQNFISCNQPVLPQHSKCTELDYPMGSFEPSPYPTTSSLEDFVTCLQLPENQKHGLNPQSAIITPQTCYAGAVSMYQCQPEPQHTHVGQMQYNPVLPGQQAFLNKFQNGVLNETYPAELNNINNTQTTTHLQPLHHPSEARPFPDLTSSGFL
Assay: AhR inhibitory activity experiment, in vitro assay 1: HepG2-Lucia AhR cells, Lucia luciferase reporter (QUANTI-Luc)
Type: cell-based
Conditions: 24 hours incubation at 37° C., Lucia luciferase in supernatant, read-out: AhR inhibitory activity C50
Procedure: Test Example: AhR Inhibitory Activity Experiment
When QUANTI-Luc™ (InvivoGen Company) testing reagents are used, AhR gene signaling pathways can be studied by monitoring the activity of Lucia luciferase in the cell culture supernatant.
In Vitro Assay 1: Assay on Inhibitory Activity in Human Cell Lines
Adherent cell layers of HepG2-Lucia™ AhR cells in a logarithmic growth phase were washed with PBS, and then the cells were isolated with trypsin. The isolated cells were centrifuged at 1000 RPM for 5 minutes, the supernatant was removed, and the cells were re-suspended with a test medium by 1.25×10^5 cells/ml.
20,000 cells were added to each well of a 96-well plate, and the 96-well plate was placed in a CO2 incubator to incubate the cells at 37° C. for 24 hours in the absence (negative control) or presence of test compounds with gradient increasing concentrations (typical dilutions: 169 pmol/L, 0.5 nmol/L, 1.5 nmol/L; 4.6 nmol/L, 13.7 nmol/L, 41 nmol/L, 123 nmol/L, 370 nmol/L, 1.1 μmol/L, 3.3 μmol/L and 10 μmol/L, in triplicate).
The 20 μl/well cell supernatant was transferred to a black 96-well plate, a 50 μL/well QUANTI-Luc™ solution was added, and the activity of Lucia luciferase was measured on a multifunctional ELISA reader Spark 10 M (Tecan Company) through a QUANTI-Luc™ luciferase assay system.
Experimental results are shown in Table 1, wherein for IC50 values, “++++” represents IC50<0.05 μM; “+++” represents IC50 between 0.05 μM and 0.2 μM; “++” represents IC50 between 0.2 μM and 1.0 μM; and “+” represents IC50>1.0 μM.

pIC50	SMILES
> 7.30	O=C(N[C@H]1CCc2ncccc21)c1cc(-c2ccc(OC(F)(F)F)cc2)nc(-c2cccnc2)n1 [Compound 27, (S)-6-(4-trifluoromethoxyphenyl)-N-((S)-6,7-dihydro-5H-cyclopentano[B]pyridin-5-yl)-2-(3-pyridyl)pyrimidine-4-formamide]
> 7.30	Cn1cc(-c2nc(C(=O)N[C@H]3CCc4cc(C#N)ccc43)cc(-c3ccc(Cl)cc3)n2)cn1 [Compound 28, (S)-6-(4-chlorophenyl)-N-(5-cyano-(2,3-dihydro)-(−)-1-yl-2-indene)-2-(1-methyl-1H-pyrazol-4-yl)pyrimidine-4-formamide]
> 7.30	COc1ccc([C@H](C)NC(=O)c2cc(-c3ccc(Cl)cc3)nc(-c3cnn(C)c3)n2)cc1Cl [Compound 29, (S)-6-(4-chlorophenyl)-N-(1-(3-chloro-4-methoxyphenyl)ethyl)-2-(1-methyl-1H-pyrazol-4-yl)pyrimidine-4-formamide]
> 7.30	COc1cc([C@H](C)NC(=O)c2cc(-c3ccc(Cl)cc3)nc(-c3cnn(C)c3)n2)ccc1F [Compound 30, (S)-6-(4-chlorophenyl)-N-(1-(3-methoxy-4-fluorophenyl)ethyl)-2-(1-methyl-1H-pyrazol-4-yl)pyrimidine-4-formamide]
> 7.30	C[C@H](NC(=O)c1cc(-c2ccc(Cl)cc2)nc(-c2cnn(C)c2)n1)c1ccc(F)c(Cl)c1 [Compound 31, (S)-6-(4-chlorophenyl)-N-(1-(3-chloro-4-fluorophenyl)ethyl)-2-(1-methyl-1H-pyrazol-4-yl)pyrimidine-4-formamide]
> 7.30	C[C@H](NC(=O)c1cc(-c2ccc(C(F)(F)F)cc2)nc(-c2cnn(C)c2)n1)c1ccc(F)c(F)c1 [Compound 32, (S)-6-(4-trifluoromethylphenyl)-N-(1-(3,4-difluorophenyl)ethyl)-2-(1-methyl-1H-pyrazol-4-yl)pyrimidine-4-formamide]
> 7.30	C[C@H](NC(=O)c1cc(-c2ccc(C(F)(F)F)cc2)nc(-c2cnn(C)c2)n1)c1ccnc(F)c1 [Compound 33, (S)-6-(4-trifluoromethylphenyl)-N-(1-(2-fluoro-4-pyridine)ethyl)-2-(1-methyl-1H-pyrazol-4-yl)pyrimidine-4-formamide]
> 7.30	C[C@H](NC(=O)c1cc(-c2ccc(OC(F)(F)F)cc2)nc(-c2cnn(C)c2)n1)c1ccnc(F)c1 [Compound 34, (S)-6-(4-trifluoromethoxyphenyl)-N-(1-(2-fluoro-4-pyridine)ethyl)-2-(1-methyl-1H-pyrazol-4-yl)pyrimidine-4-formamide]
> 7.30	C[C@H](NC(=O)c1cc(-c2ccc(Cl)cc2)nc(-c2cccnc2)n1)c1ccnc(F)c1 [Compound 35, (S)-6-(4-chlorophenyl)-N-(1-(2-fluoro-4-pyridine)ethyl)-2-(3-pyridin-4-yl)pyrimidine-4-formamide]
< 6.00	C[C@H](NC(=O)c1cc(-c2ccc(Cl)cc2)nc(-c2cnc(Cl)nc2)n1)c1ccnc(F)c1 [Compound 36, (S)-6-(4-chlorophenyl)-N-(1-(2-fluoro-4-pyridine)ethyl)-2-(2-chloropyrimidin-5-yl)pyrimidine-4-formamide]
> 7.30	C[C@H](NC(=O)c1cc(-c2ccc(Cl)cc2)nc(-c2ccnc(N)c2)n1)c1ccnc(F)c1 [Compound 37, (S)-6-(4-chlorophenyl)-N-(1-(2-fluoro-4-pyridine)ethyl)-2-(2-aminopyridin-4-yl)pyrimidine-4-formamide]
> 7.30	C[C@H](NC(=O)c1cc(-c2ccc(Cl)cc2)nc(-c2ccnc(F)c2)n1)c1ccnc(F)c1 [Compound 38, (S)-6-(4-chlorophenyl)-N-(1-(2-fluoro-4-pyridine)ethyl)-2-(2-fluoropyridin-4-yl)pyrimidine-4-formamide]
< 6.00	C[C@H](NC(=O)c1cc(-c2ccc(Cl)cc2)nc(-c2cnn(C3CC3)c2)n1)c1ccnc(F)c1 [Compound 39, (S)-6-(4-chlorophenyl)-N-(1-(2-fluoro-4-pyridine)ethyl)-2-(1-cyclopropylpyrazol-4-yl)pyrimidine-4-formamide]
> 7.30	C[C@H](NC(=O)c1cc(-c2ccc(Cl)cc2)nc(-c2cnn(C)c2)n1)c1ccc(F)c(C#N)c1 [Compound 40, (S)-6-(4-chlorophenyl)-N-(1-(3-cyano-4-fluorophenyl)ethyl)-2-(1-methyl-1H-pyrazol-4-yl)pyrimidine-4-formamide]
< 6.00	Cn1cc(-c2nc(C(=O)Nc3n[nH]c4ccccc34)cc(-c3ccc(Cl)cc3)n2)cn1 [Compound 41, 6-(4-chlorophenyl)-N-(1H-indazol-3-yl)-2-(1-methyl-1H-pyrazol-4-yl)pyrimidine-4-formamide]
> 7.30	Cn1cc(-c2nc(C(=O)NC3(C)CCN(C(=O)C4CC4)CC3)cc(-c3ccc(Cl)cc3)n2)cn1 [Compound 43, 6-(4-chlorophenyl)-N-((4-yl-4-methylpiperidin-1-yl)(cyclopropyl)ketone)-2-(1-methyl-1H-pyrazol-4-yl)pyrimidine-4-formamide]
> 7.30	Cn1cc(-c2nc(C(=O)NC3(C)CCN(CC(F)(F)F)CC3)cc(-c3ccc(Cl)cc3)n2)cn1 [Compound 44, 6-(4-chlorophenyl)-N-((4-yl-4-methylpiperidin-1-yl)trifluoroethyl)-2-(1-methyl-1H-pyrazol-4-yl)pyrimidine-4-formamide]
> 7.30	Cn1cc(-c2nc(C(=O)NC3(C)CCN(CC(N)=O)CC3)cc(-c3ccc(Cl)cc3)n2)cn1 [Compound 45, 6-(4-chlorophenyl)-N-(2-(4-yl-4-methylpiperidin-1-yl)acetamide)-2-(1-methyl-1H-pyrazol-4-yl)pyrimidine-4-formamide]
> 7.30	Cn1cc(-c2nc(C(=O)NC3(C)CCN(CC#N)CC3)cc(-c3ccc(Cl)cc3)n2)cn1 [Compound 46, 6-(4-chlorophenyl)-N-(1-(cyanomethyl)-4-methylpiperidin-4-yl)-2-(1-methyl-1H-pyrazol-4-yl)pyrimidine-4-formamide]
6.70 to 7.30	C[C@H](NC(=O)c1cc(-c2ccc(F)cc2)nc(-c2cnn(C)c2)n1)c1ccnc(F)c1 [Compound 47, (S)-6-(4-fluorophenyl)-N-(1-(2-fluoro-4-pyridine)ethyl)-2-(1-methylpyrazol-4-yl)pyrimidine-4-formamide]
< 6.00	C[C@H](NC(=O)c1cc(-c2cnn(C)c2)nc(-c2cnn(C)c2)n1)c1ccnc(F)c1 [Compound 48, (S)-6-(1-methyl-1H-pyrazol-4-yl)-N-(1-(2-fluoro-4-pyridine)ethyl)-2-(1-methyl-1H-pyrazol-4-yl)pyrimidine-4-formamide]
< 6.00	C[C@H](NC(=O)c1cc(-c2ccnc(F)c2)nc(-c2cnn(C)c2)n1)c1ccnc(F)c1 [Compound 49, (S)-6-(2-fluoro-4-pyridine)-N-(1-(2-fluoro-4-pyridine)ethyl)-2-(1-methyl-1H-pyrazol-4-yl)pyrimidine-4-formamide]
< 6.00	COc1ccc(-c2nc(C(=O)N[C@@H](C)c3ccnc(F)c3)cc(-c3ccc(Cl)cc3)n2)cc1 [Compound 50, (S)-6-(4-chlorophenyl)-N-(1-(2-fluoro-4-pyridine)ethyl)-2-(p-methoxyphenyl)pyrimidine-4-formamide]
> 7.30	Cn1cc(-c2nc(C(=O)NC3(c4ccc(Cl)cc4)CC3)cc(-c3ccc(Cl)cc3)n2)cn1 [Compound 51, (S)-6-(4-chlorophenyl)-N-(1-(4-chlorophenyl)cyclopropylamine)-2-(1-methyl-1H-pyrazol-4-yl)pyrimidine-4-formamide]
> 7.30	CNC(=O)c1ccc([C@H](C)NC(=O)c2cc(-c3ccc(Cl)cc3)nc(-c3cnn(C)c3)n2)cc1F [Compound 52, (S)-6-(4-chlorophenyl)-N-(1-(3-fluoro-4-(methylaminoformyl)phenyl)ethyl)-2-(1-methyl-1H-pyrazol-4-yl)pyrimidine-4-formamide]
> 7.30	CC(=O)Nc1ccc([C@H](C)NC(=O)c2cc(-c3ccc(Cl)cc3)nc(-c3cnn(C)c3)n2)cc1F [Compound 53]
